Measured values reported in patent publication US7045520B2, “Opioid receptor active compounds” (The Curators of the University of Missouri, priority 2002, dated 2006).
pKi: −log10 of the molar value.

Assays:
[1] = target: T1, human κ receptor (Homo sapiens, UniProt P41145); assay: Competitive binding assay, [9-3H]bremazocine, membranes of stably transfected HEK293 cells; conditions: for Receptor Affinity (relative to 100%) κ: single concentration, 20 μM; for pKi: average observed, from IC50 by Cheng-Prusoff, read-out: Inhibition Constant, Ki κ
T1 construct: expressed in transfected cells
Description: (§1) Competitive Binding Assays. Human embryonic kidney (HEK) 293 cells (ATCC CRL, 1573) were cultured at 37° C. in Dulbecco's modified Eagle's medium supplemented with 10% fetal bovine serum, 100 units/ml penicillin and 100 μg/ml streptomycin sulfate. HEK293 cells were transfected by electroporation with expression plasmids encoding murine δ or μ opioid receptors tagged at the amino termini with the FLAG-tag epitope or the human κ receptor. Cells stably expressing opioid receptors were selected in media containing 0.75 mg/ml G418 (Life Technologies, Gaithersburg, Md.).
(§2) Cell membrane preparations were collected from the stable transfectants described above. Opioid receptor binding assays were conducted in duplicate on membrane preparations that had been resuspended in 50 mM Tris-HCL, pH 7.5, utilizing [9-^3H]bremazocine (specific activity 2.6 Ci/mmol, NEN, Boston, Mass.) as radioligand and 10 μM cyclazocine to define non-specific binding. Following a one-hour incubation on ice, binding assays were terminated by filtration through Whatman GF/B filters. Filters were soaked in Ecoscint liquid scintillation solution (National Diagnostics, Manville, N.J.) and filter-bound radioactivity was measured using a Packard Tri-Carb 2100 TR liquid scintillation analyzer. Receptor binding data were analyzed by non-linear regression of saturation and competition curves using Prism 3.0 software (GraphPad Software, San Diego, Calif.). Protein concentrations were determined with the Bio-Rad protein microassay (Hercules, Calif.) using bovine serum albumin as standard.
(§3) The binding affinities for compounds listed in Table 1 (4a-c and 5a-c) were determined by competition of [9-^3H]bremazocine binding to membranes prepared from stable cells expressing either the cloned μ, δ, or κ opioid receptors as described in the above sections.
(§4) To determine the selectivity profile of compound 5c toward the cloned opioid receptors, competitive binding assays were performed in the presence of increasing concentrations of compound 5c.
(§5) Preliminary Test for Agonist vs. Antagonist Activity. A simple method to determine whether a compound is acting as an agonist or antagonist at a G-Protein coupled receptor is to perform the competitive binding assay in the presence of 100 mM NaCl. The presence of NaCl in the resuspension buffer will result in about a 4 fold decrease in binding affinity for an opioid receptor agonist, whereas an antagonist will show about a 1 fold increase in receptor affinity.

[2] = target: T2, murine μ opioid receptor (Mus musculus, UniProt P42866); assay: as above; conditions: for Receptor Affinity (relative to 100%) μ: single concentration, 20 μM; for pKi: average observed, from IC50 by Cheng-Prusoff, read-out: Inhibition Constant, Ki μ
T2 construct: expressed in transfected cells
Description: as §1, §2, §3, §4, §5

[3] = tested on: murine δ opioid receptor; assay: biochemical; assay type: binding; conditions: for Selectivity for δ receptor (δ/κ): ratio of receptor affinities δ to κ; for Selectivity for δ Receptor (δ/μ): ratio of receptor affinities δ to μ
Description: as §1, §2, §3, §4, §5

[4] = target: T3, murine δ opioid receptor (Mus musculus, UniProt P32300); assay: biochemical; assay type: binding; conditions: for Receptor Affinity (relative to 100%) δ: single concentration, 20 μM
T3 construct: expressed in transfected cells
Description: as §1, §2, §3, §4, §5

[5] = 100 mM NaCl in resuspension buffer
[6] = Inhibition Constant, Ki δ, average observed, from IC50 by Cheng-Prusoff

| SMILES | Receptor Affinity (relative to 100%) κ [1] [%] | Receptor Affinity (relative to 100%) μ [2] [%] | Selectivity for δ receptor (δ/κ) [3] | Selectivity for δ Receptor (δ/μ) [3] | Receptor Affinity (relative to 100%) δ [4] [%] | melting point [°C] | increase in binding affinity in the presence of NaCl, κ [1, 5] [fold] | pKi [1] | agonist vs. antagonist activity, κ ([1]; preliminary test, 100 mM NaCl) | increase in binding affinity in the presence of NaCl, μ [2, 5] [fold] | pKi [2] | agonist vs. antagonist activity, μ ([2]; preliminary test, 100 mM NaCl) | selectivity among the three receptor subtypes ([3]; at 20 μM, μ, δ, κ) | increase in binding affinity in the presence of NaCl, δ [4, 5] [fold] | pKi [4, 6] | pKi ([4]; binding affinity for the δ opioid receptor, summary of Table 3) | agonist vs. antagonist activity, δ ([4]; preliminary test, 100 mM NaCl) |
| --- | --- | --- | --- | --- | --- | --- | --- | --- | --- | --- | --- | --- | --- | --- | --- | --- | --- |
| COc1cccc(-n2cnnc2-c2cccc(C(C)(C)C)c2)c1 [Compound 4c, 1-{3-[3-(tert-Butyl)phenyl]-(1,2,4-triazol-4-yl)}-3-methoxybenzene] | 27 | 19 | 0.07 | 0.11 | 2 | 175 to 175.5 | – | – | – | – | – | – | – | – | – | – | – |
| CC(C)(C)c1cccc(-c2nncn2-c2cccc(O)c2)c1 [Compound 5c, 1-{3-[3-(tert-Butyl)phenyl]-(1,2,4-triazol-4-yl)}-3-phenol] | 85 | 72 | 0.46 | 0.54 | 39 | 242.5 to 243.5 | ~1 | 5.86 | antagonist | ~1 | 6.35 | antagonist | non-selective | ~1 | 6.87 | ~7.00 | antagonist |
| CN(C)c1nnc(-c2ccc(C(C)(C)C)cc2)n1-c1cccc(O)c1 [Compound 5d, 1-{3-[4-(tert-butyl)phenyl]-5-N,N-dimethylamino-(1,2,4-triazol-4-yl)}-3-phenol] | – | – | – | – | – | – | – | < 5.00 | – | – | 5.40 | – | – | – | 6.52 | – | – |
| CC(C)(C)c1ccc(O)c(-c2nncn2-c2cccc(O)c2)c1 [Compound 5b, 1-{3-[5-(tert-Butyl)-2-hydroxyphenyl]-(1,2,4-triazol-4-yl)}-3-phenol] | 20 | 21 | – | – | ~0 | – | – | – | – | – | – | – | – | – | – | – | – |
| COc1cccc(-n2cnnc2-c2ccc(C(C)(C)C)cc2)c1 [Compound 4a, 1-{3-[4-(tert-Butyl)phenyl]-(1,2,4-triazol-4-yl)}-3-methoxybenzene] | 18 | 14 | 1.72 | 2.21 | 31 | 118.2 to 118.8 | – | – | – | – | – | – | – | – | – | – | – |
| CC(C)(C)c1ccc(-c2nncn2-c2cccc(O)c2)cc1 [Compound 5a, 1-{3-[4-(tert-Butyl)phenyl]-(1,2,4-triazol-4-yl)}-3-phenol] | 48 | 18 | 0.44 | 1.17 | 21 | – | – | – | – | – | – | – | – | – | – | – | – |
| COc1cccc(-n2cnnc2-c2cc(C(C)(C)C)ccc2OC)c1 [Compound 4b, 1-{3-[5-(tert-Butyl)-2-methoxyphenyl](1,2,4-triazol-4-yl)}-3-methoxybenzene] | 27 | 20 | 0.30 | 0.27 | 8 | 119.5 to 120 | – | – | – | – | – | – | – | – | – | – | – |
